pIC50: −log10 of the molar value.
Columns and labels:
HPK1 = biological target: T1, HPK1 (Homo sapiens, UniProt Q92918); test: HPK1 enzyme inhibition assay (ADP-Glo); assay type: biochemical; settings: MBP substrate, ATP
T1 construct: purchased Signal Chem M23-11G-10
T1 sequence (Q92918 1-346 limits assumed): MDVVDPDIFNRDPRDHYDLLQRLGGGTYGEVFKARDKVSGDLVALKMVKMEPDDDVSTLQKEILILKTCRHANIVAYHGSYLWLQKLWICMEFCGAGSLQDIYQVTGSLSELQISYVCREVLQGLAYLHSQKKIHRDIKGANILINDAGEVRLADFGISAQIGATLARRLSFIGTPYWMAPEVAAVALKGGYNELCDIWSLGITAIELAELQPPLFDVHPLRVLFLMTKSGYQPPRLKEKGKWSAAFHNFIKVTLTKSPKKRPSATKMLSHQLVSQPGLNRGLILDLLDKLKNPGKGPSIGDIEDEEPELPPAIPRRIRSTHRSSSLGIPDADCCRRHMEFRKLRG
Method: The compound was dissolved in 100% DMSO at the concentration of 10 mM. The HPK1 protein was purchased from Signal Chem (M23-11G-10). 2.5 μL per well of 2×HPK1 protein was added to assay plate containing the test compound, centrifuged at 1500 rpm for 1 minute, and then incubated at 25° C. for 60 minutes. MBP protein was purchased from Signal Chem (M42-51N) and ATP was purchased from Promega (V9102). The two were added 2.5 μL per well mixture of 2×MBP (0.2 ug/ul) and ATP (20 μM), centrifuged at 1500 rpm for 1 minute, then incubated at 25° C. for 60 minutes. Then added 5 μL of ADP-Glo from Promega (V9102) to the assay plate and depleted the unconsumed ATP for 60 minutes. Then centrifuged at 1500 rpm for 1 minute and incubated at 25° C. for 60 minutes. Finally, 10 μL of the kinase assay reagent from Promega (V9102) was added to the assay plate to convert ADP to ATP, centrifuged at 1500 rpm for 1 minute, incubate at 25° C. for 40 minutes. After 40 minutes incubation, the […] was determined. Based on the results, the IC50 value of the compound was calculated.

[1] = system: HPK1 p-SLP-76 in Jurkat cells; test: HPK1 p-SLP-76 inhibition assay in Jurkat cells (HTRF); assay type: cell-based; settings: Homo sapiens, 4 h compound, anti-CD3 stimulation 20 min
Method: Before compound treatment, Jurkat cells were starved in PRMI-1640 medium supplemented with 0.5% FBS overnight. The cell density was adjusted to 1*10^7 cells/mL in assay medium (RPMI-1640 no phenol red with 0.5% FBS) and 16 uL cell suspension was transferred per well to a 384-well plate (Corning #3765). […] of test compound was prepared in assay medium and 4 uL was added per well to the 384-well plate. The plate was then incubated at 37° C., 5% CO2 for 4 h. Jurkat cells in 384-well plate were stimulated with anti-CD3 (BD Biosciences #555329, final conc. is 10 ug/mL) for 20 min at 37° C., 5% CO2 by adding 4 uL 6× antibody solution per well. Phospho-SLP76 HTRF kit was purchased from Cisbio (63ADK076PEH). 8 uL 4× Lysis Buffer was added to 384-well plate after anti-CD3 stimulation. The plate was centrifuged at 1,000 rpm for 1 min, shaken at 250 rpm for 60 min and centrifuged again at 1,000 rpm for 5 min. Afterwards the cell lysates were transferred to the assay plate (Greiner #784075) with 16 uL per well. 4 uL detection antibody mix per well prepared in Detection Buffer was added to the assay plate, followed by centrifugation at 1,000 rpm for 1 min and incubation at 25° C. overnight. The fluorescence emission at two different wavelengths (665 nm and 620 nm) was read by an HTRF compatible microplate reader and the IC50 value of the compound was calculated.

Row | pIC50 (HPK1) | pIC50 [1] | Compound
1 | 7.00 to 8.00 | 5.52 to 6.52 | CN(C)CC(=O)N1CCN(c2cccc(-c3cnc4[nH]cc(C#Cc5cccnc5)c4c3Cl)c2)C(=O)C1 [Example 30, 1-(3-(4-chloro-3-(pyridin-3-ylethynyl)-1H-pyrrolo[2,3-b]pyridin-5-yl)phenyl)-4-(dimethylglycyl)piperazin-2-one]
2 | ≥ 8.00 | 5.52 to 6.52 | CCc1c[nH]c2ncc(-c3cccc(N4CCN(C(=O)CN(C)C)CC4=O)c3)c(Cl)c12 [Example 31, 1-(3-(4-chloro-3-ethyl-1H-pyrrolo[2,3-b]pyridin-5-yl)phenyl)-4-(dimethylglycyl)piperazin-2-one]
3 | ≥ 8.00 | ≥ 6.52 | COCC(=O)N1CCN(c2cccc(-c3cnc4[nH]cc(C5CC5)c4c3Cl)c2)C(=O)C1 [Example 32, 1-(3-(4-chloro-3-cyclopropyl-1H-pyrrolo[2,3-b]pyridin-5-yl)phenyl)-4-(2-methoxyacetyl) piperazin-2-one]
4 | 7.00 to 8.00 | 5.00 to 5.52 | CCc1c[nH]c2ncc(-c3cccc(N4CCN(C(=O)CC56CC7CC(CC(C7)C5)C6)CC4=O)c3)c(Cl)c12 [Example 33, 4-(2-((1s,3s)-adamantan-1-yl)acetyl)-1-(3-(4-chloro-3-ethyl-1H-pyrrolo[2,3-b]pyridin-5-yl)phenyl)piperazin-2-one]
5 | 7.00 to 8.00 | 5.00 to 5.52 | CCc1c[nH]c2ncc(-c3cccc(N4CCN(C(=O)CCCNC(=O)CC56CC7CC(CC(C7)C5)C6)CC4=O)c3)c(Cl)c12 [Example 34, 2-((3r,5r,7r)-adamantan-1-yl)-N-(4-(4-(3-(4-chloro-3-ethyl-1H-pyrrolo[2,3-b]pyridin-5-yl)phenyl)-3-oxopiperazin-1-yl)-4-oxobutyl)acetamide]
6 | 7.00 to 8.00 | 5.00 to 5.52 | COCC(=O)N1CCN(c2cccc(-c3cnc4[nH]cc(C#Cc5ccccn5)c4c3Cl)c2)C(=O)C1 [Example 35, 1-(3-(4-chloro-3-(pyridin-2-ylethynyl)-1H-pyrrolo[2,3-b]pyridin-5-yl)phenyl)-4-(2-methoxyacetyl)piperazin-2-one]
7 | 7.00 to 8.00 | < 5.00 | COCC(=O)N1CCN(c2cccc(-c3cnc4[nH]cc(C#Cc5ncn(C)n5)c4c3Cl)c2)C(=O)C1 [Example 36, 1-(3-(4-chloro-3-((1-methyl-1H-1,2,4-triazol-3-yl)ethynyl)-1H-pyrrolo[2,3-b]pyridin-5-yl)phenyl)-4-(2-methoxyacetyl)piperazin-2-one]
8 | 7.00 to 8.00 | 5.52 to 6.52 | COCCN1CCN(c2cccc(-c3cnc4[nH]cc(CC(F)F)c4c3Cl)c2)C(=O)C1 [Example 37, 1-(3-(4-chloro-3-(2,2-difluoroethyl)-1H-pyrrolo[2,3-b]pyridin-5-yl)phenyl)-4-(2-methoxyethyl)piperazin-2-one]
9 | ≥ 8.00 | 5.52 to 6.52 | COCC(=O)N1CCN(c2cccc(-c3cnc4[nH]cc(CC(F)F)c4c3Cl)c2)C(=O)C1 [Example 38, 1-(3-(4-chloro-3-(2,2-difluoroethyl)-1H-pyrrolo[2,3-b]pyridin-5-yl)phenyl)-4-(2-methoxyacetyl)piperazin-2-one]
10 | ≥ 8.00 | 5.52 to 6.52 | COCCN1CCN(c2cccc(-c3cnc4[nH]cc(C5CC5)c4c3Cl)c2)C(=O)C1 [Example 39, 1-(3-(4-chloro-3-cyclopropyl-1H-pyrrolo[2,3-b]pyridin-5-yl)phenyl)-4-(2-methoxyethyl)piperazin-2-one]
11 | < 6.00 | < 5.00 | CCc1c[nH]c2ncc(-c3cc(N4CCNCC4=O)ccc3CN(C)C)cc12 [Example 40, 1-(4-((dimethylamino)methyl)-3-(3-ethyl-1H-pyrrolo[2,3-b]pyridin-5-yl)phenyl)piperazin-2-one]
12 | < 6.00 | < 5.00 | CCc1c[nH]c2ncc(-c3cc(N4CCNCC4=O)ccc3CNC)cc12 [Example 41, 1-(3-(3-ethyl-1H-pyrrolo[2,3-b]pyridin-5-yl)-4-((methylamino)methyl)phenyl)piperazin-2-one]
13 | 7.00 to 8.00 | 5.00 to 5.52 | CCc1c[nH]c2ncc(-c3cccc(N4CCN(C(=O)[C@@H](N)C(C)C)CC4=O)c3)c(Cl)c12 [Example 42, 4-(L-valyl)-1-(3-(4-chloro-3-ethyl-1H-pyrrolo[2,3-b]pyridin-5-yl)phenyl)piperazin-2-one]
14 | ≥ 8.00 | 5.00 to 5.52 | CCc1c[nH]c2ncc(-c3cccc(N4CCN(C(=O)CNc5ccc(C[C@@H](N)C(=O)O)cc5)CC4=O)c3)c(Cl)c12 [Example 46, (R)-2-amino-3-(4-((2-(4-(3-(4-chloro-3-ethyl-1H-pyrrolo[2,3-b]pyridin-5-yl)phenyl)-3-oxopiperazin-1-yl)-2-oxoethyl)amino)phenyl)propanoic acid]
15 | 7.00 to 8.00 | < 5.00 | CCc1c[nH]c2ncc(-c3cccc(N4CCN(C(=O)CC[C@H](NC(=O)c5ccc(NCc6cnc7nc(N)[nH]c(=O)c7n6)cc5)C(=O)O)CC4=O)c3)c(Cl)c12 [Example 47, (S)-2-(4-(((2-amino-4-oxo-3,4-dihydropteridin-6-yl)methyl)amino)benzamido)-5-(4-(3-(4-chloro-3-ethyl-1H-pyrrolo[2,3-b]pyridin-5-yl)phenyl)-3-oxopiperazin-1-yl)-5-oxopentanoic acid]
16 | ≥ 8.00 | < 5.00 | CCc1c[nH]c2ncc(-c3cccc(N4CCN(C(=O)CO[C@@H]5O[C@H](CO)[C@@H](O)[C@H](O)[C@H]5O)CC4=O)c3)c(Cl)c12 [Example 49, 1-(3-(4-chloro-3-ethyl-1H-pyrrolo[2,3-b]pyridin-5-yl)phenyl)-4-(2-(((2R,3R,4S,5S,6R)-3,4,5-trihydroxy-6-(hydroxymethyl)tetrahydro-2H-pyran-2-yl)oxy)acetyl)piperazin-2-one]
17 | ≥ 8.00 | 5.52 to 6.52 | CS(=O)(=O)N1CCN(c2cccc(-c3cnc4[nH]cc(CC(F)F)c4c3Cl)c2)C(=O)C1 [Example 51, 1-(3-(4-chloro-3-(2,2-difluoroethyl)-1H-pyrrolo[2,3-b]pyridin-5-yl)phenyl)-4-(methylsulfonyl)piperazin-2-one]
18 | ≥ 8.00 | 5.52 to 6.52 | CCc1c[nH]c2ncc(-c3cccc(N4CCN(S(C)(=O)=O)CC4=O)c3)c(Cl)c12 [Example 52, 1-(3-(4-chloro-3-ethyl-1H-pyrrolo[2,3-b]pyridin-5-yl)phenyl)-4-(methylsulfonyl) piperazin-2-one]
19 | ≥ 8.00 | 5.52 to 6.52 | COCCS(=O)(=O)N1CCN(c2cccc(-c3cnc4[nH]cc(C5CC5)c4c3Cl)c2)C(=O)C1 [Example 54, 1-(3-(4-chloro-3-cyclopropyl-1H-pyrrolo[2,3-b]pyridin-5-yl)phenyl)-4-((2-methoxyethyl)sulfonyl)piperazin-2-one]
20 | ≥ 8.00 | 5.52 to 6.52 | O=C1CN(S(=O)(=O)CCCN2CCOCC2)CCN1c1cccc(-c2cnc3[nH]cc(C4CC4)c3c2Cl)c1 [Example 55, 1-(3-(4-chloro-3-cyclopropyl-1H-pyrrolo[2,3-b]pyridin-5-yl)phenyl)-4-((3-morpholinopropyl)sulfonyl)piperazin-2-one]
21 | ≥ 8.00 | 5.52 to 6.52 | CN(C)CCCS(=O)(=O)N1CCN(c2cccc(-c3cnc4[nH]cc(C5CC5)c4c3Cl)c2)C(=O)C1 [Example 56, 1-(3-(4-chloro-3-cyclopropyl-1H-pyrrolo[2,3-b]pyridin-5-yl)phenyl)-4-((3-(dimethylamino)propyl)sulfonyl)piperazin-2-one]

From patent publication US20240368158A1, “KINASE MODULATORS, COMPOSITIONS COMPRISING THE KINASE MODULATOR, AND METHODS OF USING THE SAME” (BIOFRONT LTD, priority 2021, published 2024)
